Laboratory results taken from patent publication US12090147B2, “Combination therapy with 2-(4-chlorophenyl)-N-((2-(2,6-dioxopiperidin-3-yl)-1-oxoisoindolin-5-yl)methyl)-2,2-difluoroacetamide” (Celgene Corporation, priority 2019, dated 2024).

Columns and labels:
ML-2 cells = experiment: Immunoblot analysis of target proteins; type: cell-based, human
Procedure: Cells were washed in ice-cold 1×PBS twice before harvest in Cell Extraction Buffer (ThermoFisher Cat No. FNN0011) supplemented with 1× Halt Protease Inhibitor Cocktail (ThermoFisher Cat No. 78429). Whole cell extracts were collected after centrifugation at 14,000 g for 10 minutes, resolved on 4-12% Bis-Tris Novex Precast Gels (ThermoFisher Cat No. WG1403A), transferred onto a nitrocellulose membrane using the Turboblot Turbo Transfer System (Bio-Rad), and probed with the indicated primary antibodies. Bound antibodies were detected with IRDye-680 or -800 conjugated secondary antibodies using a LI-COR scanner.
Antibodies used for immunoblot: mouse anti-human GSPT-1 mAb conjugated with AL647 (clone number GSPT1-164-17G9-G6, Celgene, San Diego, CA), IL-1β (R&D Systems, Cat No. AF-201-NA), cleaved caspase 3 (Cell Signaling, Cat No. 9664S), alpha-tubulin (Cell Signaling, Cat No. 3873S), cleaved Caspase-8 (Cell Signaling, Cat No. 9748S), Caspase-1 (Cell Signaling, Cat No. 3866S), HA tag (Cell Signaling, Cat No. 3724), phosphor-eIF2a (Cell Signaling, Cat No. 9721), total eIF2a (Cell Signaling, Cat No. 9722), ATF4 (Cell Signaling, Cat No. 11815S), CHOP (Abcam, Cat No. 11419), GAPDH (Cell Signaling, Cat No. 5174), rabbit anti-mouse 800 antibody (LI-COR Biosciences), rabbit anti-mouse 680 antibody (LI-COR Biosciences), mouse anti-rabbit 680 antibody (LI-COR Biosciences), mouse anti-rabbit 800 antibody (LI-COR Biosciences)
The level of intracellular pro IL-1β and released IL-1β in eight AML cell lines and normal PBMC treated with a titration of Compound 1 over a 48 hour period was assessed. (see FIGS. 1A-1C, Table 2). Supernatant IL-1βb level was induced over 5 fold in 6 out of 8 AML cell lines and normal PBMC upon Compound 1 treatment compared to DMSO (FIGS. 1A, 1B, and 1C, Table 2).

ML-2 = experiment: Cell viability (CELL TITER-GLO), Compound 1 IC50 / dose response; type: cell-based; details: Homo sapiens; ML-2 (monocytic, FAB M4)
Procedure: For CELL TITER-GLO® (CTG; Promega) and Incucyte assays, cells were seeded at 0.1 million per mL, 50 μL per well of Corning black 384-well plate and allowed set overnight. The next day, test compounds were dispensed using a Tecan D300e digital dispenser according to manufacturer's instruction.
Human AML cell lines, HL-60 (CCL-240), KG-1 (CCL-246), ML-2 (ACC-15), MOLM-13 (ACC-554), MV-4-11 (CRL-9591), NOMO-1 (ACC-542), TF-1 (CRL-2003), THP-1 (TIB-202), and U937 (CRL-1593) were obtained from American Type Culture Collection (ATCC; Manassas, VA) or Deutsche Sammlung von Mikroorganismen and Zellkulturen (DSMZ, Germany) cell banks. […]
AML cell lines and primary AML were treated in duplicate or triplicates with DMSO or test compounds in 384-well plates for 3 days. Cell viability was determined by CELL TITER-GLO® (CTG; Promega) assay kit according to manufacturer's instructions. Apoptosis was monitored using Caspase 3/7 Green reagent (Essen Biosciences Cat No. 4440). Caspase-3/7 activation levels were quantified using the IncuCyte™ ZOOM basic analyzer.
Cell proliferation (CTG) and caspase 3/7 activation (IncuCyte) were analyzed using GraphPad Prism. Electrochemiluminescence data was analyzed using MSD Discovery Workbench platform.

[1] = test system: ML-2, MV4-11 and MOLM13 cell lines; experiment: VEGF and TNFa levels, electrochemiluminescence assay; type: cell-based, human; details: compared to other mechanistic agents
Procedure: IL-1α (Meso Scale Disgnostics, Cat No. K151RBD), IL-1β (Meso Scale Disgnostics, Cat No. K151QPD), IL-1RA (Meso Scale Disgnostics, Cat No. K151WTD), IL-18 (Meso Scale Disgnostics, Cat No. K151VJK), TNFa (Meso Scale Disgnostics, Cat No. K151QWD), VEGF Meso Scale Disgnostics, Cat No. K151RHD) levels were measured by (Meso Scale Disgnostics assay kits following manufacturer's instructions. Measurements were made on a MESO™ SECTOR S 600 plate reader (Meso Scale Disgnostics).
To further explore the mechanisms underlying IL-1β induction by Compound 1, and compounds with different, but related mechanisms to Compound 1 were tested in three AML cell lines, ML-2, MV4-11 and MOLM-13 (FIG. 4 and FIG. 5). Compound 1 degrades GSPT1 through cereblon mediated protein degradation, which leads to global translation inhibition, activation of ISR and subsequently apoptosis. […] To assess if GSPT1 degradation leads to pan-cytokine induction or specific to IL-1β, the compound effect was compared on the levels of two other known hypotension inducing cytokines, TNFa and VEGF (FIG. 7).

[2] = test system: MOLM13 cell pair expressing wildtype GSPT1 or GSPT1 G575N; experiment: Isogenic cell pair, endogenous GSPT1 vs non-degradable GSPT1 G575N; type: cell-based, human; details: MOLM13 overexpressing GSPT1 G575N
Description: To further confirm if IL-1β induction is an on-target effect of GSPT1 degradation, intracellular pro-IL-1β and secreted IL-1βb levels in response to Compound 1 treatment were compared in an isogenic MOLM13 cell pair either expressing endogenous wildtype GSPT1 or overexpressing a non-degradable form of GSPT1 G575N.

physchem = details: aqueous buffer
Hygroscopicity = type: physicochemical

Compound: O=C1CCC(N2Cc3cc(CNC(=O)C(F)(F)c4ccc(Cl)cc4)ccc3C2=O)C(=O)N1 (stereo not drawn) [Compound 1, 2-(4-chlorophenyl)-N-((2-(2,6-dioxopiperidin-3-yl)-1-oxoisoindolin-5-yl)methyl)-2,2-difluoroacetamide]
- Intracellular pro-IL-1β (immunoblot) (ML-2 cells; 24, 48 and 72 hours, doses conferring similar caspase3/7 activation and viability loss): conferred induction
- Cleaved caspase 3 (immunoblot) (ML-2 cells; 24 hours): concurrent induction of cleaved caspase 3
- GSPT1 level (immunoblot) (ML-2 cells; two high doses of Compound 1 at 24 hours): significant reduction of GSPT1
- IC50 (ML-2): 15.1 nM
- VEGF and TNFa levels [1]: did not induce more VEGF nor TNFa compared to other mechanistic agents
- Compound 1 mediated GSPT1 degradation, caspase 3 activation and viability loss [2]: complete resistance
- Pro-IL-1β, intracellular and supernatant IL-1β induction [2]: completely blocked
- solubility (physchem): ≤ 1 µg/mL
- Hygroscopicity (Hygroscopicity): Not hygroscopic
